Experimental data published in patent publication US20110112079A1, “PHOSPHODIESTERASE INHIBITORS” (priority 2008, published 2011).
Entries after “also recorded” stand apart in the source; their conditions may differ. Like-named read-outs stand apart in the source and are kept apart here.

Experiments:
PDE3A = target: T1, PDE3A (Homo sapiens, UniProt Q14432); assay: PDE isoform selectivity panel: PDE3A; format: biochemical; conditions: 10 μM compound, read-out: % Inhibition of the Enzyme Activity at 10 μM
T1 construct: purchased BPS Bioscience Inc

PDE7B = PDE7B (Homo sapiens, UniProt Q9NP56); assay: PDE isoform selectivity panel: PDE7B; format: biochemical; conditions: PDE7B; 10 μM compound
Chain of PDE7B (Q9NP56 whole entry, canonical isoform): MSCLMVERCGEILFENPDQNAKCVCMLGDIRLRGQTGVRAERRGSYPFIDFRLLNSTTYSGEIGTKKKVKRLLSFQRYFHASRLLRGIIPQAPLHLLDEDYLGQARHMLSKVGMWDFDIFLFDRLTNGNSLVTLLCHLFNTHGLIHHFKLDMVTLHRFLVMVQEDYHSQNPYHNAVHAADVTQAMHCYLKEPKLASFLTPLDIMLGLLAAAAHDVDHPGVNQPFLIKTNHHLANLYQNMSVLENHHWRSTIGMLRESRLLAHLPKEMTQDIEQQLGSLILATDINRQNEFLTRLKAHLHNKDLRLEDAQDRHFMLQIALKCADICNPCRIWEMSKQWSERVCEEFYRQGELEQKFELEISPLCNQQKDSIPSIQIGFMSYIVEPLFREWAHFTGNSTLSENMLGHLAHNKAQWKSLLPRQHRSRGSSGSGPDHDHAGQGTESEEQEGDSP

PDE1B = PDE1B (Homo sapiens, UniProt Q01064); assay: PDE isoform selectivity panel: PDE1B; format: biochemical; conditions: read-out: % Inhibition of the Enzyme Activity at 10 μM
PDE4B1 = target: T2, PDE4B1 (Homo sapiens, UniProt Q07343); assay: PDE isoform selectivity panel: PDE4B1; format: biochemical
T2 construct: purchased BPS Bioscience Inc

PDE3B = target: T3, PDE3B (Homo sapiens, UniProt Q13370); assay: PDE isoform selectivity panel: PDE3B; format: biochemical
T3 construct: purchased BPS Bioscience Inc

PDE8A1 = PDE8A1 (Homo sapiens, UniProt O60658); assay: PDE isoform selectivity panel: PDE8A1; format: biochemical; conditions: 10 μM compound
PDE1C = PDE1C (Homo sapiens, UniProt Q14123); assay: PDE isoform selectivity panel: PDE1C; format: biochemical; conditions: PDE1C; 10 μM compound
Chain of PDE1C (Q14123 whole entry, canonical isoform): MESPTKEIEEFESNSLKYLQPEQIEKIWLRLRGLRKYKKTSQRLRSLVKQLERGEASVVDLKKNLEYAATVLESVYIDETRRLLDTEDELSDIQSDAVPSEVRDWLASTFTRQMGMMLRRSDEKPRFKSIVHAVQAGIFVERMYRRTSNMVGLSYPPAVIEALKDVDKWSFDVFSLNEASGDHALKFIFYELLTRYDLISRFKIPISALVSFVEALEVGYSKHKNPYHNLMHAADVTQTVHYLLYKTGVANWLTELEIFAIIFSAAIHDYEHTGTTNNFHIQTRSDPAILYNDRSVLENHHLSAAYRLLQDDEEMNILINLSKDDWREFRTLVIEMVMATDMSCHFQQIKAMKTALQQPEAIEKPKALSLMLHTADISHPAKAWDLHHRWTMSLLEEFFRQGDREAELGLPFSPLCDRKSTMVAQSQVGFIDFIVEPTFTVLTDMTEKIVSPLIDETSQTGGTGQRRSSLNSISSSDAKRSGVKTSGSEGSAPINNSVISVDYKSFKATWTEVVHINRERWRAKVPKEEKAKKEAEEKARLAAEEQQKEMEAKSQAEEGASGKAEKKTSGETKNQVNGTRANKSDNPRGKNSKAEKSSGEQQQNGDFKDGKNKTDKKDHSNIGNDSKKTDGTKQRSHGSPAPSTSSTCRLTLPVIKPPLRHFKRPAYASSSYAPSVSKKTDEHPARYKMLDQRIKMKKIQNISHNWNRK

PDE4A1A [1] = target: T4, PDE4A1A (Homo sapiens, UniProt P27815); assay: IMAP fluorescence polarization assay with purified PDE4A1A; format: biochemical; set-up: purchased BPS Bioscience; conditions: Table 3; three separate experiments (SD provided); read-out: PDE4A IC50
T4 sequence (P27815 1-647 isoform P27815-4): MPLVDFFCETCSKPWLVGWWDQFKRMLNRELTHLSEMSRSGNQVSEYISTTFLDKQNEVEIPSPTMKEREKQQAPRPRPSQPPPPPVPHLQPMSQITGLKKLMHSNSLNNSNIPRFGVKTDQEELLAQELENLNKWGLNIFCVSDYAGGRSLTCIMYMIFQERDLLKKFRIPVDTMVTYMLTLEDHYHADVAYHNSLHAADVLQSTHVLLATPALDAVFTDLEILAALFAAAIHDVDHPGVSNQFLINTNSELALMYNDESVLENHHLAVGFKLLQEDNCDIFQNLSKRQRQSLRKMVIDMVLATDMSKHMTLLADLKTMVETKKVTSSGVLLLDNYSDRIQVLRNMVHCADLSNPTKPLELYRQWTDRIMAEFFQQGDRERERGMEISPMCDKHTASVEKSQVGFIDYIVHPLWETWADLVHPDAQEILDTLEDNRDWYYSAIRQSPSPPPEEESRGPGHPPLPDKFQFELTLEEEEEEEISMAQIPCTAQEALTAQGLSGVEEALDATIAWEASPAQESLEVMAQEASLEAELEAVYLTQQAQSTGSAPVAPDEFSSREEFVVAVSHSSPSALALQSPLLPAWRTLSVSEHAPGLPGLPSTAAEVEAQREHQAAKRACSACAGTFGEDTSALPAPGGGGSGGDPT

PDE4B2 = target: T5, PDE4B2 (Homo sapiens, UniProt Q07343); assay: PDE isoform selectivity panel: PDE4B2; format: biochemical
T5 construct: purchased BPS Bioscience Inc

PDE2A = PDE2A (Homo sapiens, UniProt O00408); assay: PDE isoform selectivity panel: PDE2A; format: biochemical; conditions: PDE2A; 10 μM compound
PDE7A = PDE7A (Homo sapiens, UniProt Q13946); assay: PDE isoform selectivity panel: PDE7A; format: biochemical; conditions: PDE7A; 10 μM compound
Chain of PDE7A (Q13946 whole entry, canonical isoform): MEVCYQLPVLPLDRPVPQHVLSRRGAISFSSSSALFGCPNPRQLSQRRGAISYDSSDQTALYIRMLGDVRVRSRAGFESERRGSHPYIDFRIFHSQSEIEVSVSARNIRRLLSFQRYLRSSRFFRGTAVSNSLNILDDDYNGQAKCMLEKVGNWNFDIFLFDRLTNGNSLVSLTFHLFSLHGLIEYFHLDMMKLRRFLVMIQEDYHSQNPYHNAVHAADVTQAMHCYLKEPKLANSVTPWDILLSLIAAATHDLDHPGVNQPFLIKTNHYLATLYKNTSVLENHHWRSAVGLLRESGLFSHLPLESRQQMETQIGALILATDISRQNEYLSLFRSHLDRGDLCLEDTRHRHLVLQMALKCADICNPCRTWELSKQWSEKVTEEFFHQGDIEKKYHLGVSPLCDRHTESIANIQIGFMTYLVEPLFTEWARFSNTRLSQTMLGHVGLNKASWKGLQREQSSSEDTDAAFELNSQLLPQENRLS

PDE4A1A [2] = target: T4, PDE4A1A
PDE4D2 = target: T6, PDE4D2 (Homo sapiens, UniProt Q08499); assay: PDE isoform selectivity panel: PDE4D2; format: biochemical
T6 construct: purchased BPS Bioscience Inc

PDE4C1 = target: T7, PDE4C1 (Homo sapiens, UniProt Q08493); assay: PDE isoform selectivity panel: PDE4C1; format: biochemical
T7 construct: purchased BPS Bioscience Inc
T7 sequence (Q08493 whole entry, canonical isoform): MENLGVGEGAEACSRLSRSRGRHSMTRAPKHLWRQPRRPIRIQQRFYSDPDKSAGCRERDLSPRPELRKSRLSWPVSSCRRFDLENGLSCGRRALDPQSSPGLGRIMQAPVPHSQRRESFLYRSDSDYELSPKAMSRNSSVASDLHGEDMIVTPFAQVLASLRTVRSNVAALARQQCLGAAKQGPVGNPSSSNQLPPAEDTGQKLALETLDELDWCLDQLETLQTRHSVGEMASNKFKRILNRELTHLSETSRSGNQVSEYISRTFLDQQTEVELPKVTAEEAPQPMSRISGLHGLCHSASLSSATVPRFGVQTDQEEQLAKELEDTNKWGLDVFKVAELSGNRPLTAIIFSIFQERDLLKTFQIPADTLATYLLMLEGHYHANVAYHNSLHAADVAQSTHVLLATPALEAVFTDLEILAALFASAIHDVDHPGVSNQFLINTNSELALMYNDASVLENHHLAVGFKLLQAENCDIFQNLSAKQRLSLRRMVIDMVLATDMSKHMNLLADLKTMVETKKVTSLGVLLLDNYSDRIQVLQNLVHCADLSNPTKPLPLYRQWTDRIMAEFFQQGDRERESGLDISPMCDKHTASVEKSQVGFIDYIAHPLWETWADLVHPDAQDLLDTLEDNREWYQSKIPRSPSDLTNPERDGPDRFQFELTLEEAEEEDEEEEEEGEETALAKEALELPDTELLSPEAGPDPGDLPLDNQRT

[3] = tested on: PKA reporter Reg-F[1]:Cat-F[2] in β2AR-HEK293 cells; assay: Protein-fragment complementation (Rluc PCA PKA reporter) cell-based assay; conditions: FIG. 4B; 100 μM and 10 μM, 30 min
PDE10A1 = target: T8, PDE10A1 (Homo sapiens, UniProt Q9Y233); assay: PDE isoform selectivity panel: PDE10A1; format: biochemical
T8 construct: purchased BPS Bioscience Inc

PDE9A2 = target: T9, PDE9A2 (Homo sapiens, UniProt O76083); assay: PDE isoform selectivity panel: PDE9A2; format: biochemical; conditions: 10 μM compound
T9 construct: purchased BPS Bioscience Inc
T9 sequence (O76083 1-533 isoform O76083-2): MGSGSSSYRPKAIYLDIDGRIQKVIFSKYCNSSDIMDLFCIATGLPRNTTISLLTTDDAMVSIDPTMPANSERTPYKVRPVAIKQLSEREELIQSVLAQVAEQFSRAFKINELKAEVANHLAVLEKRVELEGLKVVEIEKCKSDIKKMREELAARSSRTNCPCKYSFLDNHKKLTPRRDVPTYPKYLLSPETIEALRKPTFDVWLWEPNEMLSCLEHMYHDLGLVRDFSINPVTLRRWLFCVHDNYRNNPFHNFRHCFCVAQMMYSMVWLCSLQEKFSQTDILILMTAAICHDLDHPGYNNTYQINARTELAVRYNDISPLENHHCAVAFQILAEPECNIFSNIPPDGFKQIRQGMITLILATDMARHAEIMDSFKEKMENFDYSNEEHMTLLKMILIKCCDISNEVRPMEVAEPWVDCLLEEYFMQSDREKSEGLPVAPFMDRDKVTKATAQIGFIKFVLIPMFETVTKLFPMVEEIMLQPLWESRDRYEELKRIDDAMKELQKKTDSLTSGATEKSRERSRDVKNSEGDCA

PDE5A1 = target: T10, PDE5A1 (Homo sapiens, UniProt O76074); assay: PDE isoform selectivity panel: PDE5A1; format: biochemical; conditions: PDE5A1; 10 μM compound
T10 construct: purchased BPS Bioscience Inc

PDE11A4 = PDE11A4 (Homo sapiens, UniProt Q9HCR9); assay: PDE isoform selectivity panel: PDE11A4; format: biochemical; conditions: 10 μM compound
Chain of PDE11A4 (Q9HCR9 whole entry, canonical isoform): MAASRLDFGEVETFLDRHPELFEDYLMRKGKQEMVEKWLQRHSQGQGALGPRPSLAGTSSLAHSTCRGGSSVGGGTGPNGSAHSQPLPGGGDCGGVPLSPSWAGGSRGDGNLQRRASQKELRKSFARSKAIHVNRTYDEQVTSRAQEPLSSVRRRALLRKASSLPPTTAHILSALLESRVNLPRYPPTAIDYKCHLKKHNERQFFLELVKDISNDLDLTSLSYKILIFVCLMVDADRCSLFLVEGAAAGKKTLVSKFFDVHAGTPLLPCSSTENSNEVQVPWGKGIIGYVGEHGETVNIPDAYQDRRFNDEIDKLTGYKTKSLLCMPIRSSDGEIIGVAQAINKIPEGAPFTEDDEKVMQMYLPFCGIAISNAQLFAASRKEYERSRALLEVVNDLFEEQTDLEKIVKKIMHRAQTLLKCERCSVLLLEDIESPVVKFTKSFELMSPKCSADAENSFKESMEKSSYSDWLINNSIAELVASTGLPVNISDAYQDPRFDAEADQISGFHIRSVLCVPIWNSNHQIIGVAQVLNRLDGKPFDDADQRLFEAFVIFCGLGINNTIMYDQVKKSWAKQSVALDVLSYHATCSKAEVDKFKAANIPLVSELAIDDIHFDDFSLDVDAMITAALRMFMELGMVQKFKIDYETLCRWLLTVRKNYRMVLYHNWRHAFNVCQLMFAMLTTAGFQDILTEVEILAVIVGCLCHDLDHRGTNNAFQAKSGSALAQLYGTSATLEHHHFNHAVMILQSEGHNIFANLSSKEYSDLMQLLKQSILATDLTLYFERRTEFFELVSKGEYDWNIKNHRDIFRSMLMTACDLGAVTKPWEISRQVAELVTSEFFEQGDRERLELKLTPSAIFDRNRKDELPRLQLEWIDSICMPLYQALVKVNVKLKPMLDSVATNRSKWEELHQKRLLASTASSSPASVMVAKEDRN

PDE1A = target: T11, PDE1A (Homo sapiens, UniProt P54750); assay: PDE isoform selectivity panel: PDE1A; format: biochemical; conditions: 10 μM compound
T11 construct: purchased BPS Bioscience Inc
T11 sequence (P54750 whole entry, canonical isoform): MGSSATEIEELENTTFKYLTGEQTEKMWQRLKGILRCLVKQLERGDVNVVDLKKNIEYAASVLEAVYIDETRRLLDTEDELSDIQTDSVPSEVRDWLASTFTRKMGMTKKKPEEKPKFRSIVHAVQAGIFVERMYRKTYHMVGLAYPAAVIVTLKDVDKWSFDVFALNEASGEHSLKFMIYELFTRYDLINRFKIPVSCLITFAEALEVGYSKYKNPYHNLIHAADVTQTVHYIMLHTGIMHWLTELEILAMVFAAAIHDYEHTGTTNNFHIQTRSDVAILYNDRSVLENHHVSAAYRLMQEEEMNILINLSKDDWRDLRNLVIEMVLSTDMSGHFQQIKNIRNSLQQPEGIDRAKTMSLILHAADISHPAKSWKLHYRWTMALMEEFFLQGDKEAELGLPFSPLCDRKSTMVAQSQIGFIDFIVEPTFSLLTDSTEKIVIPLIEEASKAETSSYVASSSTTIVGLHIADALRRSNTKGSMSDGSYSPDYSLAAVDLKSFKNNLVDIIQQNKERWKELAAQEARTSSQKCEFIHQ

PDE4 = conditions: read-out: EC50 (concentration at 50% activity); FIG. 3; four separate experiments; normalized to 10 μM 1 response
[4] = read-out: % Inhibition of the Enzyme Activity at 10 μM

In the case of COc1ccc(OC)c(-c2nnc3n2N=C(c2ccc(OC)c(O[C@@H]4CCOC4)c2)CS3)c1 [Compound 10, (R)-3-(2,5-dimethoxyphenyl)-6-(4-methoxy-3-(tetrahydrofuran-3-yloxy)phenyl)-7H-[1,2,4]-triazolo[3,4-b][1,3,4]thiadiazine], the inhibition at 10 µM (PDE3A) is reported as 56%, the “% Inhibition of the Enzyme Activity at 10 μM” value (“% Inhibition” below) (PDE7B) is reported as 43% and the inhibition at 10 µM (PDE1B) is reported as 52%. For the same molecule, the IC50 (PDE4B1) was 2.3 nM, the IC50 (PDE3B) was 4600 nM and the “% Inhibition” value (PDE8A1) was “inactive”. For the same molecule, the “% Inhibition” value (PDE1C) was 49%, the IC50 (PDE4A1A [1]) was 3 nM and the IC50 (PDE4B2) was 1.6 nM. The “% Inhibition” value (PDE2A) was 68%, the “% Inhibition” value (PDE7A) was 48% and the IC50 (PDE4A1A [2]) was “Sub-nanomolar potencies”. The IC50 (PDE4D2) was 1.9 nM, the IC50 (PDE4C1) was 46 nM and the “effect on luminescence signal (PKA activation)” value [3] was “marked loss of luminescence; also recorded: dose-dependent inhibition”. For the same molecule, the IC50 (PDE10A1) was 632 nM, the “% Inhibition” value (PDE9A2) was “inactive” and the inhibition at 10 µM (PDE9A2; [4]) was < 26%. The “% Inhibition” value (PDE5A1) was 58%, the “% Inhibition” value (PDE11A4) was “inactive” and the inhibition at 10 µM (PDE11A4; [4]) was < 26%. For the same molecule, the “% Inhibition” value (PDE1A) was 36% and the EC50 (PDE4) was 2.3 nM.
